The test system of data set [1] is mouse TAP1/TAP2 translocator. Put plainly: Accumulation of labeled peptide in mouse liver microsomes. Particulars: microsomes from TAP1 mutant (C57Bl/6 x 129/SV) mice; means of duplicates.
For data set [2], the target named is TAP translocator (H-2d-derived microsomes) (Mus musculus, UniProt P21958+P36371). Put plainly: biochemical.
Data set [3] deals with mouse microsomes. Briefly: Efflux of labeled peptide from loaded mouse microsomes. It counts as biochemical. Particulars: mouse liver microsomes in the presence of ATP; HPLC; data not shown.

Residues, ends and D or L forms follow the SMILES beside them.

Chain of TAP translocator (H-2d-derived microsomes) (P21958 whole entry): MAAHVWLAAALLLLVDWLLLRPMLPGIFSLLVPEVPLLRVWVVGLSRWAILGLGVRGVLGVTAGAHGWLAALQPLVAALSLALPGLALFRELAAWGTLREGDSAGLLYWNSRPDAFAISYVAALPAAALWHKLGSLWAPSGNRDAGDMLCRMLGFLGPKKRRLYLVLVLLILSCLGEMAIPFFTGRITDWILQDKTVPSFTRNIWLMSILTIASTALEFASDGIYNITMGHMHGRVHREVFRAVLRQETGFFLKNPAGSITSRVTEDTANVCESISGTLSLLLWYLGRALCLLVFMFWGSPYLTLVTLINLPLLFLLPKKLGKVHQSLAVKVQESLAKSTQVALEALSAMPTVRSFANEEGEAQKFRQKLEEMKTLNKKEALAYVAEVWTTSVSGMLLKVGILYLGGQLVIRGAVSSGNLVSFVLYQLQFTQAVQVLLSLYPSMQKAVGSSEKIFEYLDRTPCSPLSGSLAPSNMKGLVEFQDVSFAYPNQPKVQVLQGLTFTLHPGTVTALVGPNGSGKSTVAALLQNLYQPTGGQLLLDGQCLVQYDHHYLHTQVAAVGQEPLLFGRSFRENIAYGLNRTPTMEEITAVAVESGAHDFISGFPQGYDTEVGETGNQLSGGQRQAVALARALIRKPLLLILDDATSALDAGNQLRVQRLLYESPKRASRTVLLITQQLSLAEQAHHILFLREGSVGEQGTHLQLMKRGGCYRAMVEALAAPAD
Chain of TAP translocator (H-2d-derived microsomes) (P36371 whole entry): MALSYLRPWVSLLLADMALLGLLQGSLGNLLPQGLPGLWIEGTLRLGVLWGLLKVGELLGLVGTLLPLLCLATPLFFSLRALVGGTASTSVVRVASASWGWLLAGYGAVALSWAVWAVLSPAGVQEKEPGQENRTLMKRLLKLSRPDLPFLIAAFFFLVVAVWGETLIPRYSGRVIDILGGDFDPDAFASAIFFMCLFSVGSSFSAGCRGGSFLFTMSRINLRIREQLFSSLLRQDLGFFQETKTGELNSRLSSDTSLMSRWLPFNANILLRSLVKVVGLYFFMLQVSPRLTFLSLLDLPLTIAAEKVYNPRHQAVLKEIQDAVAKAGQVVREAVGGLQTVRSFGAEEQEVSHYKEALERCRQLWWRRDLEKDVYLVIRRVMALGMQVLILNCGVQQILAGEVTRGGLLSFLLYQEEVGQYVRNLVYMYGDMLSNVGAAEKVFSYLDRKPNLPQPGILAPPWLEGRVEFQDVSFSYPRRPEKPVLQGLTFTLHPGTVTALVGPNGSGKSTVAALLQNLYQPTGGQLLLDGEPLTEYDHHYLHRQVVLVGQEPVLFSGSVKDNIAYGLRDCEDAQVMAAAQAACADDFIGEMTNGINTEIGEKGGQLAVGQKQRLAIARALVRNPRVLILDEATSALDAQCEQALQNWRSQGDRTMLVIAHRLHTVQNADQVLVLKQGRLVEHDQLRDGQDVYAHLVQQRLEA

TYNRTRALI: the “Accumulation of labeled peptide in TAP- microsomes” value in data set [1] is “do not accumulate”. `CC(C)C[C@H](NC(=O)[C@H](C)NC(=O)[C@H](CCCNC(=N)N)NC(=O)[C@@H](NC(=O)[C@H](CCCNC(=N)N)NC(=O)[C@H](CCC(N)=O)NC(=O)[C@H](Cc1ccc(O)cc1)NC(=O)[C@@H](N)[C@@H](C)O)[C@@H](C)O)C(=O)N[C@H](C(=O)O)C(C)C` (H-TYQRTRALV-OH) yielded an IC50 in data set [2] of 3 µM. `CC(C)C[C@H](NC(=O)[C@H](C)NC(=O)[C@@H]1CCCN1C(=O)[C@H](Cc1ccc(O)cc1)NC(=O)[C@H](CC(N)=O)NC(=O)CNC(=O)[C@@H]1CCCN1C(=O)[C@H](C)NC(=O)[C@@H](N)Cc1ccccc1)C(N)=O` [FAPGNYPAL] came in with an IC50 in data set [2] of 3 µM. For the same compound, the “Integrity of material accumulated by and released from microsomes” value in data set [3] is “largely intact”.

The record behind these values is paper PMC2191358 (The Journal of Experimental Medicine, 1994).
